Test results: US11111232B2, “Substituted cyclobutylpyridine and cyclobutylpyrimidine compounds as indoleamine 2,3-dioxygenase (IDO) inhibitors” (MERCK SHARP & DOHME CORP., priority 2017, dated 2021)

Legend:
Assay type in all cases: cell-based
IDO1 [1] = target: T1, IDO1 (Homo sapiens, UniProt P14902); assay: IDO1 cellular assay in Hela cells stimulated with IFNγ; details: IFNγ 100 ng/mL, 300 uM L-tryptophan, about 48 hours, fluorescence readout
Description: IDO1 Cellular Assay in Hela Cells Stimulated with IFNγ
Hela cells were cultured in complete Hela culture medium (90% EMEM, 10% heat-inactivated fetal bovine serum) and expanded to about 1×10^9 cells. The cells were then collected and frozen down at 1×10^7 cells/vial in 1 mL frozen medium (90% complete Hela culture medium, 10% DMSO)
Compounds to be tested were serially diluted in ten 3-fold steps in DMSO starting from 10 mM DMSO stocks in Echo low volume plate(s).
Frozen Hela cells were thawed and transferred into Hela assay medium (99% complete Hela culture medium, 1% Pen/Strep) with 20 mL medium/vial of cells. The cells were spun down at 250 g in a table top centrifuge for 5 min and suspended in same volume of Hela assay medium. […] Sterile L-tryptophan were added to the cells with final concentration of 300 uM L-tryptophan. A small aliquot (2 mL/plate) of Hela cells were set aside and were not treated with IFNγ, to serve as the Max-E control.
Hela cells with and without IFNγ were dispensed to the respective wells of 384-well assay plates containing the compounds. The plates were incubated for about 48 hours at a 37° C., 5% CO2 incubator. Afterwards, […] of 0.5 M methyl isonipecotate in dimethyl sulfoxide were added into each well and the plates were sealed and incubated at 37° C. without CO2 overnight. The plates were centrifuged for 1 min at 200×g. The resulting fluorescence was measured in a Spectramax plate reader (Molecular Devices) with a 400 nm excitation filter and a 510 nm emission filter.
Potencies were calculated by linear least squares fit to the four parameter logistic IC50 equation.

IDO1 [2] = target: T1, IDO1; assay: IDO1 HEK293 cellular assay; details: HEK293 cells transfected with Flag-IDO1 vector, 20-24 hours, fluorescence readout
Description: IDO1 HEK293 Cellular Assay
Compounds to be tested were serially diluted in ten 3-fold steps in DMSO starting from 10 mM DMSO stocks. Compound dilutions or DMSO alone were then dispensed from the dilution plate into a Greiner black 384-well assay plate (catalog #781086) using an Echo 550 acoustic liquid handler (Labcyte).
HEK293 cell pellets were resuspended to 5×10^5 cells/mL in complete HEK293 culture media (89% DMEM, 10% FBS, 1% penicillin/streptomycin). Suspended cells (2 mL) were dispensed into each well of a 6-well Corning plate (Catalog # 3516). Cells were allowed to attach and were incubated for 20 hours at 37° C. in a 5% CO2 incubator. Flag-IDO1 vector (Genscript True ORF Gold, 2 ug) in 150 uL of Opti-MEM medium was added to each well of a Corning 24 well plate (Cat # 3527) and incubated for 5 minutes at room temperature. To each well of the 24-well plate was added […] Lipofectamine 2000 (Gibco) and the plate incubated at room temperature for 20-30 minutes. To each well of attached cells in the 6-well plate, […] of the transfection mix from the 24-well plate was gently added to each well and IDO1 protein was allowed to express for 24-30 hours at 37 degrees Celsius in a 5% CO2 incubator.
Media was removed from the cells which were then washed with 2 mL Dulbecco's phosphate-buffered saline (DPBS). After removal of DPBS, 0.5 mL of TrypLE (Gibco) was added and incubated at 5 minutes until cells lift from the surface of the wells. Complete HEK293 culture media (4 mL) was added to each well and cells were collected and pooled into a conical tube. Cells were pelleted at 200×g for 5 minutes and resuspended in an equal volume of complete DMEM medium. Cells were diluted to 4×10^5 cells per mL in complete HEK293 media. L-Tryptophan was added to added to give a final concentration of […]. The diluted transfected cells […] or nontransfected cells […] were dispensed into wells of Greiner black 384-well assay plates (catalog #781086) containing previously diluted compounds. The plate is briefly mixed and centrifuged at 200×g for 10 seconds to collect cells at the bottom of the plate. Plates were covered and incubated for 20-24 hours at 37 degrees C. in a 5% CO2 incubator. Afterwards […] of 0.5 M methyl isonipecotate in dimethyl sulfoxide was added to each well, mixed, sealed, and centrifuged at 500 rpm for 10 seconds. Plates were incubated at 37 degrees in a 5% CO2 incubator overnight to develop fluoresence. The plates are allowed to cool and then centrifuged for 1 minute at 1000×g. The resulting fluoresence was measured in an Envision plate reader (Perkin Elmer) with a 400/25 nm excitation filter and an 510/20 nm emission filter.
(§1) The fluoresence intensity of each well was corrected for the background observed in wells with untransfected cells and was expressed as a fraction of the intensity observed in wells of IDO1 transfected cells and DMSO only. Potencies were calculated by linear least squares fit to the four parameter logistic IC50 equation.

TDO = target: T2, TDO (Homo sapiens, UniProt P48775); assay: TDO cellular assay in frozen SW48 cells; details: 300 uM L-tryptophan, about 48 hours, fluorescence readout
T2 construct: endogenous in cells; host or cells: SW48 cells (A2780 cells as low-TDO control)
Description: TDO Cellular Assay in Frozen SW48 Cells
SW48 cells were cultured in complete RPMI culture medium (90% RPMI, 10% heat-inactivated fetal bovine serum).
Compounds to be tested were serially diluted in ten 3-fold steps in DMSO starting from 10 mM DMSO stocks in Echo low volume plate(s). […] The cells were spun down at 350 g in a table top centrifuge for 5 minutes and suspended in same volume of RPMI assay medium. […] Sterile L-tryptophan (Sigma, Cat #T0254) was added to the cells with final concentration of 300 uM.
SW48 and A2780 cells were dispensed to the respective wells of 384-well assay plates containing the compounds. The plates were incubated for about 48 hours at a 37° C., 5% CO2 incubator. Afterwards, 12 μL of 0.5 M ethyl isonipecotate (Sigma Aldrich, Cat #E33505) in dimethyl sulfoxide were added into each well and the plates were sealed and incubated at 37° C. without CO2 overnight. The plates were centrifuged for 1 minute at 200×g. The resulting fluorescence was measured in a Spectramax plate reader (Molecular Devices) with a 400 nm excitation filter and a 510 nm emission filter.
as §1, with “fluorescence” for “fluoresence”, “A2780” for “untransfected”, “SW48” for “IDO1 transfected”

T2 sequence (P48775 whole entry): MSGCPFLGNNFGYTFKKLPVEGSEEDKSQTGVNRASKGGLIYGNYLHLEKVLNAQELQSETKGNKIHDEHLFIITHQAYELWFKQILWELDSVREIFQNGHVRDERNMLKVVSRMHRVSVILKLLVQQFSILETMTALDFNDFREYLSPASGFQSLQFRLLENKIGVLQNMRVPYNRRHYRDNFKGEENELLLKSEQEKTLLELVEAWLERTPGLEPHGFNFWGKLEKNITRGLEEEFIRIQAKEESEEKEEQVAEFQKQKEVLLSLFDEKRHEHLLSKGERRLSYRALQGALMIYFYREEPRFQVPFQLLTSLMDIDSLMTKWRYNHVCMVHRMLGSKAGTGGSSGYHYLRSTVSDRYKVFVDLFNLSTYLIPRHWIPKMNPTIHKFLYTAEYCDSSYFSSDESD
T1 sequence (P14902 whole entry): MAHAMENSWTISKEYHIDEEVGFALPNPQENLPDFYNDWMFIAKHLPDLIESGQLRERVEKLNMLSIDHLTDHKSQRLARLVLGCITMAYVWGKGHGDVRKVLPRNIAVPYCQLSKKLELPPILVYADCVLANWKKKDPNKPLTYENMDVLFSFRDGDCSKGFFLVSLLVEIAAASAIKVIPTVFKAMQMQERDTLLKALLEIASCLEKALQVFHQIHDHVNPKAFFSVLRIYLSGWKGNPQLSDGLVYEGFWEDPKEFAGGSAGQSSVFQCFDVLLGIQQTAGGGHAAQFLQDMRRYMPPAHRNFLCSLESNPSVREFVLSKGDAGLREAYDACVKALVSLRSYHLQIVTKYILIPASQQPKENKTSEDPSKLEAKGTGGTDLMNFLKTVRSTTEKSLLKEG

Row | Compound | IC50 (IDO1 [1]) [nM] | IC50 (IDO1 [2]) [nM] | IC50 (TDO) [nM]
1 | O=C(CCC(F)(F)F)Nc1ccc(C2(C(=O)Nc3ccc(F)cc3)CCC2)cn1 [Example 5, N-(4-fluorophenyl)-1-(6-(4,4,4-trifluorobutanamido)pyridin-3-yl)cyclobutane-1-carboxamide] | 72 | 76 | ≥ 10000
2 | O=C(CCC1CC1)Nc1ccc(C2(C(=O)Nc3ccc(F)cc3)CCC2)cn1 [Example 18, 1-{6-[(3-cyclopropylpropanoyl)amino]pyridin-3-yl}-N-(4-fluorophenyl)cyclobutane-1-carboxamide] | 29 | 32 | ≥ 10000
3 | O=C(Nc1ccc(C2(C(=O)Nc3ccc(F)cc3)CCC2)cn1)C1CCOCC1 [Example 20, N-(5-{1-[(4-fluorophenyl)carbamoyl]cyclobutyl}pyridin-2-yl)oxane-4-carboxamide] | 138 | 156 | ≥ 10000
4 | CC(C)CC(=O)Nc1ccc(C2(C(=O)Nc3ccc(F)cc3)CCC2)cn1 [Example 27, N-(4-fluorophenyl)-1-{6-[(3-methylbutanoyl)amino]pyridin-3-yl}cyclobutane-1-carboxamide] | 25 | 28 | ≥ 10000
5 | O=C(CC1CC1)Nc1ccc(C2(C(=O)Nc3ccc(F)cc3)CCC2)cn1 [Example 30, 1-{6-[(cyclopropylacetyl)amino]pyridin-3-yl}-N-(4-fluorophenyl)cyclobutane-1-carboxamide] | 83 | 70 | ≥ 10000

The remaining molecules from weak to strong by IC50 (IDO1 [1]), led by results:

Row | IC50 (IDO1 [1]) [nM] | IC50 (IDO1 [2]) [nM] | IC50 (TDO) [nM] | Compound
6 | 154 | 123 | ≥ 10000 | O=C(Nc1ccc(C2(C(=O)Nc3ccc(F)cc3)CCC2)cn1)C1CCCOC1 (stereo not drawn) [Example 22, N-(5-{1-[(4-fluorophenyl)carbamoyl]cyclobutyl}pyridin-2-yl)oxane-3-carboxamide]
7 | 28 | 26 | ≥ 10000 | O=C(Nc1ccc(C2(C(=O)Nc3ccc(F)cc3)CCC2)cn1)C1CCCC(F)(F)C1 (stereo not drawn) [Example 17, 3,3-difluoro-N-(5-{1-[(4-fluorophenyl)carbamoyl]cyclobutyl}pyridin-2-yl)cyclohexane-1-carboxamide]
